According to PubChem BioAssay AID1963867 (Molecular Pharmacology Branch, DTP, NCI, 2024):
pIC50: −log10 of the molar value.

Test system: KRAS-mutant PDC tumor spheroid with HUVEC/MSC, viability
Test: Anticancer human tumor 327498-153-R-J2-PDC patient-derived uterine carcinosarcoma cell line growth inhibition [KRAS2]
Details: for pIC50: curve of first compound; for viability, T/C: stronger effect = lower value
In short: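 Combination screen of spheroid viability in tumor-cell co-cultures with endothelial (HUVEC) and mesenchymal stem cell stroma. Each agent was tested in half-log dilutions, topping at clinical Cmax or at 10 microM without a known Cmax.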

[1] = second compound 0.0316 µM, first compound 0.0316 µM
[2] = second compound 0.0316 µM, first compound 0.1 µM
[3] = second compound 0.0316 µM, first compound 0.316 µM
[4] = second compound 0.0316 µM, first compound 1 µM
[5] = second compound 0.0316 µM, first compound 3.16 µM
[6] = second compound 0.0316 µM, first compound 10 µM
[7] = second compound 0.1 µM, first compound 0.0316 µM
[8] = second compound 0.1 µM, first compound 0.1 µM
[9] = second compound 0.1 µM, first compound 0.316 µM
[10] = second compound 0.1 µM, first compound 1 µM
[11] = second compound 0.1 µM, first compound 3.16 µM
[12] = second compound 0.1 µM, first compound 10 µM
[13] = second compound 0.316 µM, first compound 0.0316 µM
[14] = second compound 0.316 µM, first compound 0.1 µM
[15] = second compound 0.316 µM, first compound 0.316 µM
[16] = second compound 0.316 µM, first compound 1 µM
[17] = second compound 0.316 µM, first compound 3.16 µM
[18] = second compound 0.316 µM, first compound 10 µM
[19] = second compound 1 µM, first compound 0.0316 µM
[20] = second compound 1 µM, first compound 0.1 µM
[21] = second compound 1 µM, first compound 0.316 µM
[22] = second compound 1 µM, first compound 1 µM
[23] = second compound 1 µM, first compound 3.16 µM
[24] = second compound 1 µM, first compound 10 µM
[25] = second compound 3.16 µM, first compound 0.0316 µM
[26] = second compound 3.16 µM, first compound 0.1 µM
[27] = second compound 3.16 µM, first compound 0.316 µM
[28] = second compound 3.16 µM, first compound 1 µM
[29] = second compound 3.16 µM, first compound 3.16 µM
[30] = second compound 3.16 µM, first compound 10 µM
[31] = second compound 0.0316 µM, first compound 0.000316 µM
[32] = second compound 0.0316 µM, first compound 0.001 µM
[33] = second compound 0.0316 µM, first compound 0.00316 µM
[34] = second compound 0.0316 µM, first compound 0.01 µM
[35] = second compound 0.1 µM, first compound 0.000316 µM
[36] = second compound 0.1 µM, first compound 0.001 µM
[37] = second compound 0.1 µM, first compound 0.00316 µM
[38] = second compound 0.1 µM, first compound 0.01 µM
[39] = second compound 0.316 µM, first compound 0.000316 µM
[40] = second compound 0.316 µM, first compound 0.001 µM
[41] = second compound 0.316 µM, first compound 0.00316 µM
[42] = second compound 0.316 µM, first compound 0.01 µM
[43] = second compound 1 µM, first compound 0.000316 µM
[44] = second compound 1 µM, first compound 0.001 µM
[45] = second compound 1 µM, first compound 0.00316 µM
[46] = second compound 1 µM, first compound 0.01 µM
[47] = second compound 3.16 µM, first compound 0.000316 µM
[48] = second compound 3.16 µM, first compound 0.001 µM
[49] = second compound 3.16 µM, first compound 0.00316 µM
[50] = second compound 3.16 µM, first compound 0.01 µM
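Further: spheroids exposed to agents for seven days before reading.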
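Wherever viability, T/C is given: 100% = DMSO vehicle wells so lower means fewer viable cells.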

| SMILES | pIC50 (second compound 0.0316 µM) | pIC50 (second compound 0.1 µM) | pIC50 (second compound 0.316 µM) | pIC50 (second compound 1 µM) | pIC50 (second compound 3.16 µM) | viability, T/C [1] | viability, T/C [2] | viability, T/C [3] | viability, T/C [4] | viability, T/C [7] | viability, T/C [8] | viability, T/C [9] | viability, T/C [10] | viability, T/C [13] | viability, T/C [14] | viability, T/C [19] | viability, T/C [20] | viability, T/C [21] | viability, T/C [25] | viability, T/C [26] | further results |
| --- | --- | --- | --- | --- | --- | --- | --- | --- | --- | --- | --- | --- | --- | --- | --- | --- | --- | --- | --- | --- | --- |
| CC(C)NCC(C(=O)N1CCN(c2ncnc3c2C(C)CC3O)CC1)c1ccc(Cl)cc1 (stereo not drawn) + C=CC(=O)N1CCN(c2nc(OCC3CCCN3C)nc3c2CCN(c2cccc4cccc(C)c24)C3)CC1CC#N | 7.17 | > 7.50 | > 7.50 | > 7.50 | > 7.50 | 59.5% | 44.3% | 32.8% | 22.8% | 48.7% | 32.4% | 22.1% | 15.7% | 42.5% | 29.8% | 34.5% | 25.2% | 15.1% | 0.26% | 0.41% | viability, T/C [5]: 15.5%; viability, T/C [6]: 9.69%; viability, T/C [11]: 12.7%; viability, T/C [12]: 11.4%; viability, T/C [15]: 18.3%; viability, T/C [16]: 13.5%; viability, T/C [17]: 12.3%; viability, T/C [18]: 7.28%; viability, T/C [22]: 12.6%; viability, T/C [23]: 9.14%; viability, T/C [24]: 6.92%; viability, T/C [27]: 0.51%; viability, T/C [28]: 0.15%; viability, T/C [29]: 0.14%; viability, T/C [30]: 0.21% |
| CC(C)n1nc(-c2ccc3oc(N)nc3c2)c2c(N)ncnc21 + C=CC(=O)N1CCN(c2nc(OCC3CCCN3C)nc3c2CCN(c2cccc4cccc(C)c24)C3)CC1CC#N | 8.99 | 9.47 | 9.23 | > 9.50 | > 9.50 | 8.35% | 5.42% |  |  | 8.1% | 4.85% |  |  | 9.55% | 4.33% | 4.83% | 3.23% |  | 0.14% | 0.21% | viability, T/C [31]: 62.7%; viability, T/C [32]: 49.2%; viability, T/C [33]: 35.1%; viability, T/C [34]: 17.8%; viability, T/C [35]: 51.6%; viability, T/C [36]: 35.8%; viability, T/C [37]: 28.4%; viability, T/C [38]: 17.2%; viability, T/C [39]: 57.3%; viability, T/C [40]: 43.7%; viability, T/C [41]: 28.8%; viability, T/C [42]: 15.8%; viability, T/C [43]: 46.5%; viability, T/C [44]: 33%; viability, T/C [45]: 22.6%; viability, T/C [46]: 13.2%; viability, T/C [47]: 0.28%; viability, T/C [48]: 0.25%; viability, T/C [49]: 0.22%; viability, T/C [50]: 0.14% |
| CC1(C)CCC(CN2CCN(c3ccc(C(=O)NS(=O)(=O)c4ccc(NCC5CCOCC5)c([N+](=O)[O-])c4)c(Oc4cnc5[nH]ccc5c4)c3)CC2)=C(c2ccc(Cl)cc2)C1 + C=CC(=O)N1CCN(c2nc(OCC3CCCN3C)nc3c2CCN(c2cccc4cccc(C)c24)C3)CC1CC#N | 5.70 | 5.78 | 5.96 | > 7.50 | > 7.50 | 70.1% | 66.6% | 72.7% | 63.8% | 56.8% | 59.2% | 52% | 53% | 48.7% | 49% | 44.5% | 44.1% | 44.9% | 1.15% | 1.18% | viability, T/C [5]: 40.2%; viability, T/C [6]: 8.7%; viability, T/C [11]: 45.9%; viability, T/C [12]: 12.1%; viability, T/C [15]: 58.4%; viability, T/C [16]: 52.2%; viability, T/C [17]: 27.3%; viability, T/C [18]: 1.57%; viability, T/C [22]: 48%; viability, T/C [23]: 18.5%; viability, T/C [24]: 0.31%; viability, T/C [27]: 0.54%; viability, T/C [28]: 0.45%; viability, T/C [29]: 1.03%; viability, T/C [30]: 0.39% |
| CCN1CCN(Cc2ccc(Nc3ncc(F)c(-c4cc(F)c5nc(C)n(C(C)C)c5c4)n3)nc2)CC1 + C=CC(=O)N1CCN(c2nc(OCC3CCCN3C)nc3c2CCN(c2cccc4cccc(C)c24)C3)CC1CC#N | > 8.50 | > 8.50 | > 8.50 | > 8.50 | > 8.50 | 33.4% | 35.2% | 34.5% | 40.4% | 28.2% | 34.2% | 33.7% | 36.4% | 30.1% | 24% | 21.1% | 19.3% | 23.5% | 0.46% | 0.84% | viability, T/C [33]: 55.9%; viability, T/C [34]: 46.6%; viability, T/C [37]: 49.1%; viability, T/C [38]: 35.4%; viability, T/C [41]: 40.5%; viability, T/C [42]: 33.1%; viability, T/C [15]: 33.3%; viability, T/C [16]: 37.9%; viability, T/C [45]: 31.1%; viability, T/C [46]: 23.1%; viability, T/C [22]: 13.5%; viability, T/C [49]: 1.79%; viability, T/C [50]: 0.22%; viability, T/C [27]: 0.58%; viability, T/C [28]: 0.24% |
| CCNC(=O)CC1N=C(c2ccc(Cl)cc2)c2cc(OC)ccc2-n2c(C)nnc21 (stereo not drawn) + C=CC(=O)N1CCN(c2nc(OCC3CCCN3C)nc3c2CCN(c2cccc4cccc(C)c24)C3)CC1CC#N | 6.18 | 6.66 |  | > 7.50 | > 7.50 | 72.8% | 75.9% | 51.8% | 47.1% | 55.9% | 58.4% | 46.2% | 36.9% |  |  | 48.8% | 41.7% | 36.4% | 1.66% | 2.31% | viability, T/C [5]: 36.5%; viability, T/C [6]: 27%; viability, T/C [11]: 31.9%; viability, T/C [12]: 22.4%; viability, T/C [22]: 27.9%; viability, T/C [23]: 25.1%; viability, T/C [24]: 18.9%; viability, T/C [27]: 1.02%; viability, T/C [28]: 0.22%; viability, T/C [29]: 2.19%; viability, T/C [30]: 0.39% |
| Cn1ncnc1[C@H]1c2n[nH]c(=O)c3cc(F)cc(c23)N[C@@H]1c1ccc(F)cc1 + C=CC(=O)N1CCN(c2nc(OCC3CCCN3C)nc3c2CCN(c2cccc4cccc(C)c24)C3)CC1CC#N | 8.14 | 8.42 | 8.71 | > 9.50 | > 9.50 | 28.2% | 16.9% |  |  | 21.9% | 14.6% |  |  | 18.7% | 13.7% | 17.1% | 12.3% |  | 0.18% | 0.22% | viability, T/C [31]: 77.5%; viability, T/C [32]: 69.2%; viability, T/C [33]: 63.3%; viability, T/C [34]: 45.2%; viability, T/C [35]: 54.5%; viability, T/C [36]: 57.5%; viability, T/C [37]: 54.3%; viability, T/C [38]: 35.2%; viability, T/C [39]: 56.1%; viability, T/C [40]: 48.5%; viability, T/C [41]: 49.8%; viability, T/C [42]: 32.8%; viability, T/C [43]: 44%; viability, T/C [44]: 53.7%; viability, T/C [45]: 37.1%; viability, T/C [46]: 25.4%; viability, T/C [47]: 0.23%; viability, T/C [48]: 0.18%; viability, T/C [49]: 0.94%; viability, T/C [50]: 0.16% |
